Two molecules from patent US8207143B2, “Methods of treating cancer and other conditions or disease states using LFMAU and LDT” (Yale University, priority 2005, dated 2012) can be followed below.

One experiment deals with colon 38 mouse tumor. Briefly: Experiment 7: LDT and LFMAU alone and with 5-Fluorouracil/leucovorin on colon 38 in immuno-competent mice. In kind it is in vivo. The note with it: LDT 100 mg/kg. Here is the method:
This tumor is passed from a solid tumor growing in mice. Several grams (assuming a gram per ml) are pressed through a sterile screen and suspended in a tissue culture media without phenol red or fetal calf serum (a balanced salt solution) at 2 ml/gram of tumor. Then 0.1 ml of this tumor suspension is implanted into the flank of the mouse. Ten days to two weeks after implantation (when the tumors could be measured with a caliper), unless otherwise indicated, the drug therapy was initiated.
In general, drugs are delivered at a rate of 0.1 ml per 10 grams of body weight. Every day the mice are weighed to deter the amount to be injected and as a index of toxicity.
The Tumor Volume is calculated from the measurements by the formula: length (mm)×width (mm)×width (mm)×II/6 (as a % of Day 1).
This experiment was designed to determine the effect of LDT and LFMAU alone and in combination with 5-Fluorouracil with leucovorin rescue on the growth of mouse tumor (colon 38) in immuno-competent mice. The drugs were administered to the mice according to the following schedule:
5FU/LV—150 mg/kg each i.p. once on day one
LDT—100 mg/kg p.o. b.i.d. for 5 days
LFMAU—50 mg/kg p.o. bid for 5 days
Combination groups received both treatments as per above schedules.

The next experiment relates to colon 38. Briefly: Experiment 8: LDT and LFMAU enhancement of oxaliplatin on colon 38 growth in C57BL6 female mice. The experiment is classed as in vivo, mouse. How it is done:
This tumor is passed from a solid tumor growing in mice. Several grams (assuming a gram per ml) are pressed through a sterile screen and suspended in a tissue culture media without phenol red or fetal calf serum (a balanced salt solution) at 2 ml/gram of tumor. Then 0.1 ml of this tumor suspension is implanted into the flank of the mouse. Ten days to two weeks after implantation (when the tumors could be measured with a caliper), unless otherwise indicated, the drug therapy was initiated. In general, drugs are delivered at a rate of 0.1 ml per 10 grams of body weight. Every day the mice are weighed to deter the amount to be injected and as a index of toxicity. The Tumor Volume is calculated from the measurements by the formula: length (mm)×width (mm)×width (mm)×II/6 (as a % of Day 1). Experiment 8 tested the effects of LDT (L-dT) and LFMAU (15 mg/kg of each, same schedule as above) on the enhancement of anti-cancer drug effect (oxaliplatin 10 mg/kg i.p., once on day 1) on colon 38 growth in C57BL6 female mice.

The next experiment concerns HepG2. The experiment in a line: Experiment 9: LDT enhancement of oxaliplatin on HepG2 in NCR Nu/Nu male mice. In kind it is in vivo, human. How it is done:
This is a human hepatocarcinoma that is grown in tissue culture as a monolayer in MEM with 10% FBS. Several flasks of cells are grown, then harvested with pancreatin and resuspended in a balanced salt solution at 10^8 per ml the 0.1 ml of this suspension is implanted into the flank of a NCR nude mouse (T cell deficient to grow human tissues). Then approximately 10 days later, when the tumor was measurable, the drug treatment started. In general, drugs are delivered at a rate of 0.1 ml per 10 grams of body weight. Every day the mice are weighed to deter the amount to be injected and as a index of toxicity. The Tumor Volume is calculated from the measurements by the formula: length (mm)×width (mm)×width (mm)×II/6 (as a % of Day 1). Experiment 9 tested the effects of LDT (15 mg/kg, same schedule as above) on the enhancement of anti-cancer drug effect (oxaliplatin 10 mg/kg i.p., once on day 1) on HepG2in immunodeficient NCR Nu/Nu male mice.

A further experiment relates to B16 melanoma. Briefly: Experiment 6: B16 melanoma injected subcutaneously into C57 BL6 mice. The experiment is classed as in vivo, mouse. The note with it: B16 melanoma s.c. in C57 BL6 mice; LFMAU 50 mg/kg B.I.D., 5 days pretreatment then ten days; Controls 831±474.5. Here is the method: These experiments includes B16 melanoma which was injected subcutaneously into C57 BL6 mice which were pretreated for 5 days with LFMAU (B.I.D.) and then subsequently for ten days with LFMAU (BID.) at 50 mg/kg. with no other anti-cancer compound. This experiment yielded tumor size S.D. for the Controls of 831±474.5 and for the LFMAU treated mice of 160±150.3.

Setting [1] is: immunocompetent mice, LFMAU 50 mg/kg p.o. b.i.d. for 5 days.

`Cc1cn([C@@H]2C[C@@H](O)[C@H](CO)O2)c(=O)[nH]c1=O` [LDT, β-L-2′-deoxyribofuranosylthymidine]: in the experiment on colon 38 mouse tumor (setting [1]), the “duration of the effect after therapy (FIG. 7)” value is reported as “lasted well past the 5 day therapy” and the “effect on growth of colon 38 mouse tumor, alone (FIG. 7)” value was “slows down the growth”. In the experiment on colon 38 mouse tumor (with 5FU/LV 150 mg/kg each i.p. once on day one, LFMAU 50 mg/kg p.o. b.i.d. 5 days), the “effect on the anti-cancer activity of 5-FU/LV (FIG. 7)” value is reported as “significant (additive or synergistic)”. For the same molecule, in the experiment on colon 38 (15 mg/kg of each nucleoside, oxaliplatin 10 mg/kg i.p. once on day 1), the “enhancement of anti-tumor effect of Oxaliplatin on colon 38 (FIG. 8)” value is “clearly enhanced the anti-tumor effect of Oxaliplatin”. In the experiment on colon 38 (15 mg/kg with oxaliplatin 10 mg/kg i.p.), the “duration of the effect after treatment (FIG. 8)” value is recorded as “lasts well after the nucleoside treatment is stopped”. The “effect on HepG2 tumor, alone or in combination (FIG. 9)” value with HepG2 (LDT 15 mg/kg) is given as “effective alone or in combination with oxaliplatin”. Further, the “duration of the effect after treatment (FIG. 9)” value with HepG2 (LDT 15 mg/kg with oxaliplatin) is given as “lasts after the nucleoside treatment is stopped”. The “enhancement of anti-tumor effect of Oxaliplatin on HepG2 (FIG. 9)” value in the experiment on HepG2 (LDT 15 mg/kg, oxaliplatin 10 mg/kg i.p. once on day 1) was “clearly enhanced the anti-tumor effect of Oxaliplatin”.

For the molecule `Cc1cn([C@H]2O[C@@H](CO)[C@H](O)[C@H]2F)c(=O)[nH]c1=O` [LFMAU, 2′-fluoro-5-methyl-β-L-arabinofuranosyluridine], in the experiment with B16 melanoma, the “tumor size S.D.” value is 160±150.3.
